In one test the target is T1, CDK9 (Homo sapiens, UniProt P50750).
T1 construct: full-length human kinases from Carna Biosciences; purchased Carna Biosciences 04-110
Briefly: Kinase TR-FRET assay, CDK9. Type of test: biochemical. The following applies: full-length human kinase, 10 μM ATP. The method, boiled down:
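Full-length human CDK9 (0.9 ng/μl) incubated 100 min at room temperature with 10 μM ATP, 100 nM ULight-MBP peptide and compound (0.1 nM–30 μM) in 50 mM HEPES pH 7.4, 1 mM EGTA, 10 mM MgCl2, 2 mM DTT, 0.01% Tween20. Stopped with 10 mM EDTA, then 1 nM Eu-anti-phospho-Thr232 MBP antibody added for 1 h. TR-FRET read at 665/620 nm with 340 nm excitation.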

In test [1] the target is T2, DYRK1A (Homo sapiens, UniProt Q13627). Briefly: Cellular DYRK1 autophosphorylation assay in U2-OS cells. Type of test: cell-based. Set-up: full-length, wild-type human DYRK1A (NM_001396) with an HA tag; expressed in transfected cells; host or cells: human U2-OS osteosarcoma cells, transient transfection of a pcDNA3.1 plasmid. The following applies: U2-OS cells transfected with HA-tagged human DYRK1A, 5 hours exposure; read-out: IC50 (μM) P-Ser520-Dyrk1A -Cell assay. Put shortly: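 IC50 derived from dose-response curves of phospho-Ser520-DYRK1A (blots normalised to total DYRK1A), quantified by either immunoblotting with chemiluminescence or Mesoscale electrochemiluminescent ELISA. Compounds applied to U2-OS cells across several concentrations for 5 hours.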

Another test has as its target T3, CLK1 (Homo sapiens, UniProt P49759).
T3 construct: full-length human kinases from Carna Biosciences; purchased Carna Biosciences 04-126
Briefly: Kinase TR-FRET assay, CLK1. The conditions noted are these: full-length human kinase, 10 μM ATP. Type of test: biochemical. As for the experimental part:
Inhibition of the enzymatic activity of human kinases was evaluated in a Time-Resolved Fluorescence Resonance Energy Transfer (TR-FRET) assay in 384-well reaction plates. […] Test compounds of the invention were added in reaction buffer at a range of concentrations from 0.1 nM to 30 μM. Following addition of EDTA (Sigma E7889, 10 mM) to stop the reaction, Europium-labelled mouse monoclonal antibody recognizing phospho-Thr232 in MBP (Perkin Elmer TRF0201, 1 nM) was added.

In test [2] the target is T4, His-TEV-DYRK1A Kinase domain (aa127-485) (Homo sapiens, UniProt Q13627).
T4 construct: His-TEV-DYRK1A Kinase domain (aa127-485); His tag (N); TEV protease cleavage site (N)
Briefly: Kinase ADP assay (ADP Hunter), DYRK1A kinase domain. Type of test: biochemical. The conditions noted are these: 20 μM ATP. The method, boiled down:
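Readout is ADP Hunter fluorescence at 590 nm, developed 20 min at 30 °C after the kinase step. That step ran 10 min at 30 °C in Hepes pH 7.4 (10 mM MgCl2, 1 mM EGTA, 0.02% Tween20) containing 20 μM ATP, 40 μM peptide and 20 nM enzyme plus compound.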

In a further test the target is T5, DYRK1B (Homo sapiens, UniProt Q9Y463).
T5 construct: full-length human kinases from Carna Biosciences; purchased Carna Biosciences 04-131
Kind of test: Kinase TR-FRET assay, DYRK1B. It is filed as biochemical. The following applies: full-length human kinase, 10 μM ATP. Put shortly: (§1)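 Compounds tested at 0.1 nM to 30 μM in reaction buffer; reaction stopped with 10 mM EDTA. Phosphorylated MBP detected with 1 nM Europium-labelled anti-phospho-Thr232 antibody by TR-FRET.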

For test [3], the target named is T2, DYRK1A. Briefly: Kinase TR-FRET assay, DYRK1A. It is filed as biochemical. Set-up: full-length, wild-type human DYRK1A (NM_001396) with an HA tag; expressed in transfected cells; host or cells: human U2-OS osteosarcoma cells, transient transfection of a pcDNA3.1 plasmid. The following applies: full-length human kinase, 10 μM ATP. Put shortly:
as §1

The record followed here is US20180273528A1 (LES LABORATOIRES SERVIER, priority 2015, published 2018).

T3 sequence (P49759 1-526 isoform P49759-3): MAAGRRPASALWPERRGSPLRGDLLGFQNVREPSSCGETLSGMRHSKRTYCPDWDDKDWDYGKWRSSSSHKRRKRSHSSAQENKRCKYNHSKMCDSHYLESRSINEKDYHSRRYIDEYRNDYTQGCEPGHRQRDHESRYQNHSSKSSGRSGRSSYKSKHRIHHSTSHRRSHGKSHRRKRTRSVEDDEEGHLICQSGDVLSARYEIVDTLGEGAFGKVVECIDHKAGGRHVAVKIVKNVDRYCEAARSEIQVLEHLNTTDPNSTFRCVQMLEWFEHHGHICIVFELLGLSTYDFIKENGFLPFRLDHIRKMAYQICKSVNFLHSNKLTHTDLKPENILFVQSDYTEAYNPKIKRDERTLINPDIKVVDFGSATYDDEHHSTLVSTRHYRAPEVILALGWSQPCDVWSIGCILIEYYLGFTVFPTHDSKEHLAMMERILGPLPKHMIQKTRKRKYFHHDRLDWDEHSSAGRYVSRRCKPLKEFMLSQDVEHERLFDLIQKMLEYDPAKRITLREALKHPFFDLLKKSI
T1 sequence (P50750 whole entry): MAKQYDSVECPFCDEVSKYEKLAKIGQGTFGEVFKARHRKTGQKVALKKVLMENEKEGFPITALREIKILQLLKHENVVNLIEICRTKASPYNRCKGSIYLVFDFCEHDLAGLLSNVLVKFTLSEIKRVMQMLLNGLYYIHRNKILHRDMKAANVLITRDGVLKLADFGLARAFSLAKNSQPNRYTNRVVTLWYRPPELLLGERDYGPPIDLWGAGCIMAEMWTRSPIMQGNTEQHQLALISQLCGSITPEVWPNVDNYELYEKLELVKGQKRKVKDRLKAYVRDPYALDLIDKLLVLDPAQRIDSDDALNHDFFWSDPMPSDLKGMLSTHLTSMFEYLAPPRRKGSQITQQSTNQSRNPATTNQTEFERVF
T1 sequence (O60563 whole entry partner): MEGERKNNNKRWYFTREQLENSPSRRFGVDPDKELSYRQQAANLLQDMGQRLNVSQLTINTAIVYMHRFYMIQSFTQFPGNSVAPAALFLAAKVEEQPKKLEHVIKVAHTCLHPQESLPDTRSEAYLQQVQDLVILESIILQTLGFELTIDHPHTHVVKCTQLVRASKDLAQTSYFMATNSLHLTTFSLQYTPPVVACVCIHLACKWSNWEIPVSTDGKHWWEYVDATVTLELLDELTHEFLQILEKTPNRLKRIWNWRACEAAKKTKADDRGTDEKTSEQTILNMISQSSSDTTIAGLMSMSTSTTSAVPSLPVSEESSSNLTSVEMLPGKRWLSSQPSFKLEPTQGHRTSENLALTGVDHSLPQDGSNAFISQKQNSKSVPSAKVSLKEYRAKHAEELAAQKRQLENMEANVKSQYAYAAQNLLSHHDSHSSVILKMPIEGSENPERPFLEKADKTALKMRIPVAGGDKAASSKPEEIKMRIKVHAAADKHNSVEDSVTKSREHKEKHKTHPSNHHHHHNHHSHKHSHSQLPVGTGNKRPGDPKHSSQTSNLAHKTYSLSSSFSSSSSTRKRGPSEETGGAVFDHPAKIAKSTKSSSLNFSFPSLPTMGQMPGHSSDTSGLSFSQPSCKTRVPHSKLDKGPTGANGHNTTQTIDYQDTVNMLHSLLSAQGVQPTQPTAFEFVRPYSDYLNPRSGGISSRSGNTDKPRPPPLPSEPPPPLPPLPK
T5 sequence (Q9Y463 whole entry): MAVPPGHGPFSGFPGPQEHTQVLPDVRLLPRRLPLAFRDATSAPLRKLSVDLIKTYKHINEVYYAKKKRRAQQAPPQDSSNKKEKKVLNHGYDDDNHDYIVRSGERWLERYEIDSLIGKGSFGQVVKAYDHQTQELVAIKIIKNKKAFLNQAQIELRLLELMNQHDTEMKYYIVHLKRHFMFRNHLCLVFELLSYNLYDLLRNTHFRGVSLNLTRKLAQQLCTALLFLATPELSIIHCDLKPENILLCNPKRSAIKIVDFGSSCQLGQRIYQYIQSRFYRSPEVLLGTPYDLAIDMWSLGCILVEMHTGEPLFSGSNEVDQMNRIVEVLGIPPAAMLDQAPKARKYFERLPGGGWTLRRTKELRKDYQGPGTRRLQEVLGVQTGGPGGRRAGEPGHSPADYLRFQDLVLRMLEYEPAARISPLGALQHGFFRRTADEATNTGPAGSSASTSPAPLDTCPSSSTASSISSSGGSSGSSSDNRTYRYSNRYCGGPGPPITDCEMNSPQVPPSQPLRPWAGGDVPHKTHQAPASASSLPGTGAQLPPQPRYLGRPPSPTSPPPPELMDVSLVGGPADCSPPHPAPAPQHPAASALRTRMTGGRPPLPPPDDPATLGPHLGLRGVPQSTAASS

On to `Cc1nc2ccc(-c3cc(N)nc(N)c3)nc2n1C[C@H](C)Oc1ccccc1` (single isomer, unassigned) [Example 107], for which the IC50 is more than 3 µM against CDK9; 0.111 µM at DYRK1A [1]; 0.037 µM against CLK1; 0.012 µM in test [2]; 0.007 µM at DYRK1B; 0.008 µM against DYRK1A [3].

Regarding `Cc1nc2ccc(-c3cc(N)nc(N)c3)nc2n1C[C@H]1C[C@@H]1c1ccccc1` (single isomer, unassigned) [Example 109], the IC50 was more than 3 µM against CDK9; 0.22 µM at DYRK1A [1]; 0.025 µM against CLK1; 0.03 µM in test [2]; 0.015 µM against DYRK1B; 0.01 µM at DYRK1A [3].

For the compound `Cc1nc2ccc(-c3cc(N)nc(N)c3)nc2n1CC1Cc2ccccc21` (single isomer, unassigned) [Example 112, 4-[3-(bicyclo[4.2.0]octa-1,3,5-trien-7-ylmethyl)-2-methyl-3H-imidazo[4,5-b]pyridin-5-yl]pyridine-2,6-diamine], the IC50 against CDK9 turned out to be 2.62 µM; at DYRK1A [1], 0.09 µM; against CLK1, 0.025 µM; in test [2], 0.005 µM; against DYRK1B, 0.014 µM; against DYRK1A [3], 0.006 µM.

As for `Cc1nc2ccc(-c3cc(N)nc(N)c3)nc2n1C[C@H](C)Oc1ccccn1` (single isomer, unassigned) [Example 174], the IC50 at CDK9 was more than 3 µM; against CLK1 it was 0.083 µM; in test [2], 0.074 µM; on DYRK1B, 0.013 µM; against DYRK1A [3], 0.016 µM.

Turning to `Cc1nc2ccc(-c3cc(N)nc(N)c3)nc2n1C[C@@H](C)Oc1ccccn1` (single isomer, unassigned) [Example 175], the concentration for half-maximal inhibition (IC50) against CDK9 is more than 3 µM; on DYRK1A [1], 0.131 µM; against CLK1, 0.04 µM; in test [2], 0.02 µM; against DYRK1B, 0.016 µM; against DYRK1A [3], 0.007 µM.

In the case of `Cc1nc2ccc(-c3cc(N)nc(N)c3)nc2n1C[C@@H](C)Oc1cccc(Cl)n1` (single isomer, unassigned) [Example 177], the 50% inhibitory concentration (IC50) stood at 0.554 µM against CDK9; 0.042 µM at DYRK1A [1]; 0.017 µM against CLK1; 0.014 µM in test [2]; 0.005 µM at DYRK1B; 0.005 µM on DYRK1A [3].

Take `Cc1nc2ccc(-c3cc(N)nc(N)c3)nc2n1C[C@@H](C)Oc1cccc(F)n1` (single isomer, unassigned) [Example 189]: the IC50 against CDK9 was 0.339 µM; at DYRK1A [1], 0.026 µM; on CLK1, 0.017 µM; in test [2] it was 0.013 µM; at DYRK1B, 0.007 µM; against DYRK1A [3], 0.007 µM.

With `C=CCCn1c(C)nc2ccc(-c3cc(N)nc(N)c3)nc21` [Example 14, 4-[3-(but-3-en-1-yl)-2-methyl-3H-imidazo[4,5-b]pyridin-5-yl]pyridine-2,6-diamine], the IC50 on CDK9 was 1.95 µM; on DYRK1A [1] it was 0.05 µM; against CLK1, 0.016 µM; in test [2], 0.008 µM; against DYRK1B, 0.001 µM; against DYRK1A [3], 0.002 µM.

With `Cc1nc2ccc(-c3cc(N)nc(N)c3)nc2n1C1CCC1` [Example 23, 4-(3-cyclobutyl-2-methyl-3H-imidazo[4,5-b]pyridin-5-yl)pyridine-2,6-diamine], the IC50 against CDK9 was 0.57 µM; at DYRK1A [1] it was 0.017 µM; at CLK1 it was 0.012 µM; in test [2] it was 0.006 µM; at DYRK1B, 0.008 µM; on DYRK1A [3], 0.002 µM.

Consider `Cc1nc2ccc(-c3cc(N)nc(N)c3)nc2n1C1CCOCC1` [Example 49, 4-[2-methyl-3-(tetrahydro-2H-pyran-4-yl)-3H-imidazo[4,5-b]pyridin-5-yl]pyridine-2,6-diamine], for which the half-maximal inhibitory concentration (IC50) on CDK9 was 0.979 µM; at DYRK1A [1] it was 0.13 µM; on CLK1, 0.017 µM; in test [2] it was 0.011 µM; at DYRK1B, 0.017 µM; at DYRK1A [3], 0.003 µM.

Regarding `C=CCn1c(C)nc2ccc(-c3cc(N)nc(N)c3)nc21` [Example 51, 4-[2-methyl-3-(prop-2-en-1-yl)-3H-imidazo[4,5-b]pyridin-5-yl]pyridine-2,6-diamine], the 50% inhibitory concentration (IC50) came out at 4.37 µM on CDK9; 0.038 µM at DYRK1A [1]; 0.029 µM at CLK1; 0.007 µM in test [2]; 0.001 µM against DYRK1B; 0.006 µM against DYRK1A [3].

With `CCCCCn1c(C)nc2ccc(-c3cc(N)nc(N)c3)nc21` [Example 65, 4-(2-methyl-3-pentyl-3H-imidazo[4,5-b]pyridin-5-yl)pyridine-2,6-diamine], the 50% inhibitory concentration (IC50) against CDK9 is more than 10 µM; on DYRK1A [1], 0.022 µM; against CLK1, 0.018 µM; in test [2], 0.006 µM; against DYRK1B it was 0.005 µM; against DYRK1A [3], 0.001 µM.

With `COc1cc(Cn2c(C)nc3ccc(-c4cc(N)nc(N)c4)nc32)ccn1` [Example 72, 4-{3-[(2-methoxypyridin-4-yl)methyl]-2-methyl-3H-imidazo[4,5-b]pyridin-5-yl}pyridine-2,6-diamine], the concentration for half-maximal inhibition (IC50) was more than 10 µM against CDK9; 0.184 µM at DYRK1A [1]; 0.09 µM against CLK1; 0.015 µM in test [2]; 0.014 µM against DYRK1B; 0.01 µM on DYRK1A [3].

As to `Cc1nc2ccc(-c3cc(N)nc(N)c3)nc2n1CCc1ccc2c(c1)OCO2` [Example 73, 4-(3-[2-(1,3-benzodioxol-5-yl)ethyl]-2-methyl-3H-imidazo[4,5-b]pyridin-5-yl)pyridine-2,6-diamine], the IC50 worked out at 4.66 µM at CDK9; 0.065 µM on DYRK1A [1]; 0.019 µM against CLK1; 0.009 µM in test [2]; 0.008 µM at DYRK1B; 0.004 µM against DYRK1A [3].

For the compound `CCCCn1c(CCC)nc2ccc(-c3cc(N)nc(N)c3)nc21` [Example 161, 4-(3-butyl-2-propyl-3H-imidazo[4,5-b]pyridin-5-yl)pyridine-2,6-diamine], the concentration for half-maximal inhibition (IC50) at CDK9 is more than 10 µM; on DYRK1A [1] it was 0.143 µM; against CLK1, 0.218 µM; in test [2], 0.02 µM; on DYRK1B, 0.005 µM.

Take `Cc1nc2ccc(-c3cc(N)nc(N)c3)nc2n1CCOc1cccc(Cl)n1` [Example 165, 4-(3-{2-[(6-chloropyridin-2-yl)oxy]ethyl}-2-methyl-3H-imidazo[4,5-b]pyridin-5-yl)pyridine-2,6-diamine]: the IC50 at DYRK1A [1] was found to be 0.026 µM; against CLK1, 0.015 µM; in test [2], 0.009 µM; against DYRK1B it was 0.005 µM; on DYRK1A [3], 0.003 µM.

As to `Cc1nc2ccc(-c3cc(N)nc(N)c3)nc2n1CCOc1cccc(Br)n1` [Example 168, 4-(3-{2-[(6-bromopyridin-2-yl)oxy]ethyl}-2-methyl-3H-imidazo[4,5-b]pyridin-5-yl)pyridine-2,6-diamine], the IC50 came to 0.032 µM at DYRK1A [1]; 0.015 µM against CLK1; 0.011 µM in test [2]; 0.006 µM at DYRK1B; 0.002 µM at DYRK1A [3].
